Tested on: Aβ40 in conditioned medium of cells stably expressing Amyloid Precursor Protein (APP)
Test: BACE cell-based assay: Aβ40 in conditioned medium by sandwich ELISA
Conditions: cell based assay data of Table 4; unit inferred; read-out: Cell Assay
Description: The cell-based assay measures inhibition or reduction of Aβ40 in conditioned medium of test compound treated cells expressing amyloid precursor protein.
Cells stably expressing Amyloid Precursor Protein (APP) were plated at a density of 40K cells/well in 96 well plates (Costar). The cells were cultivated for 24 hours at 37° C. and 5% CO2 in DMEM supplemented with 10% FBS. The test compounds were then added to cells in 10-point dose response concentrations with the starting concentration being either 100 μM or 10 μM. The compounds were diluted from stock solutions in DMSO and the final DMSO concentration of the test compounds on cells was 0.1%. After 24 h of incubation with the test compounds the supernatant conditioned media was collected and the Aβ40 levels were determined using a sandwich ELISA. The ICso of the compound was calculated from the percent of control or percent inhibition of Aβ40 as a function of the concentration of the test compound.
The sandwich ELISA to detect Aβ40 was performed in 96 well microtiter plates, which were pre-treated with goat anti-rabbit IgG (Pierce). The capture and detecting antibody pair that were used to detect Aβ40 from cell supernatants were affinity purified pAb40 (Biosource) and biotinylated 6E10 (Signet Labs Inc.), respectively. The optimal concentration for the pAb40 antibody was 3 μg/ml in Superblock/TBS (Pierce) that was supplemented with 0.05% Tween 20 (Sigma).
Cellular supernatants were incubated with the capture antibody for 3 h at 4° C., followed by 3 wash steps in TBS-tween (0.05%). The detecting antibody incubation was for 2 h at 4° C., again followed by the wash steps as described previously. The final readout of the ELISA is Time-Resolved Fluorescence (counts per minute) using Delfia reagents Streptavidin-Europium and Enhancement solutions (Perkin Elmer) and the Victor 2 multilabel counter (Perkin Elmer).

Structure (SMILES) | IC50 [nM]
CC(=O)N[C@@H](Cc1cc(F)cc(Cl)c1)[C@H](O)CN[C@H]1CC2(CCC2)Oc2ncc(CC(C)(C)C)cc21 [compound 567] | 3.27
CC(=O)N[C@@H](Cc1ccc(F)cc1)[C@H](O)CN[C@H]1CC2(CCC2)Oc2ncc(CC(C)(C)C)cc21 [compound 568] | 8.13
CC(=O)N[C@@H](Cc1cccc(F)c1)[C@H](O)CN[C@H]1CC2(CCC2)Oc2cnc(CC(C)(C)C)cc21 [compound 569] | 5.22
CC(=O)N[C@@H](Cc1ccc(F)cc1)[C@H](O)CN[C@H]1CC2(CCC2)Oc2cnc(CC(C)(C)C)cc21 [compound 570] | 22.1
CC(=O)N[C@@H](Cc1ccc(F)cc1)[C@H](O)CN[C@H]1CC2(CCC2)Oc2ncc(CC(C)(C)F)cc21 [compound 571] | 80.9
CC(=O)N[C@@H](Cc1ccc(F)cc1)[C@H](O)CN[C@H]1CC(C)(C)Oc2ncc(CC(C)(C)C)cc21 [compound 572] | 13.8
CC(=O)N[C@@H](Cc1cc(F)cc(F)c1)[C@H](O)CN[C@H]1CC(C)(C)Oc2ncc(CC(C)(C)C)cc21 [compound 573] | 3.12
CC(=O)N[C@@H](Cc1ccc(F)cc1)[C@@H](O)CN[C@H]1CC2(CCC2)Oc2ncc(CC(C)(C)F)cc21 [compound 574] | 111
CC(=O)N[C@@H](Cc1ccc(F)c(C)c1)[C@H](O)CN[C@H]1CC2(CCC2)Oc2ncc(CC(C)(C)C)cc21 [compound 575] | 4.64
CC(=O)N[C@@H](Cc1ccc(C)c(F)c1)[C@H](O)CN[C@H]1CC2(CCC2)Oc2ncc(CC(C)(C)C)cc21 [compound 576] | 2.15
COC(=O)N[C@@H](Cc1ccc(F)cc1)[C@H](O)CN[C@H]1CC2(CCC2)Oc2ncc(CC(C)(C)C)cc21 [compound 577] | 60
CC(=O)N[C@@H](Cc1ccc(F)c(C)c1)[C@H](O)CN[C@H]1CC2(CCC2)Oc2ncc(CC(C)(C)F)cc21 [compound 578] | 28.5
COc1cccc(C[C@H](NC(C)=O)[C@H](O)CN[C@H]2CC3(CCC3)Oc3ncc(CC(C)(C)C)cc32)c1 [compound 579] | 4.61
CC(=O)N[C@@H](Cc1ccc(Cl)cc1)[C@H](O)CN[C@H]1CC2(CC2)Oc2ncc(CC(C)(C)C)cc21 [compound 580] | 120
COCC(C)(C)Cc1cnc2c(c1)[C@@H](NC[C@@H](O)[C@H](Cc1ccc(F)cc1)NC(C)=O)CC1(CCC1)O2 [compound 581] | 137
CC(=O)N[C@@H](Cc1ccccc1)[C@H](O)CN[C@H]1CC2(CCC2)Oc2c1cc(CC(C)(C)C)nc2N(C)C [compound 582] | 31.8
CC(=O)N[C@@H](Cc1ccc(F)cc1)[C@H](O)CN[C@H]1CC2(CCC2)Oc2c1cc(CC(C)(C)C)nc2Cl [compound 583] | 112
CCNc1nc(CC(C)(C)C)cc2c1OC1(CCC1)C[C@@H]2NC[C@@H](O)[C@H](Cc1ccc(F)cc1)NC(C)=O [compound 584] | 5.29
CC(=O)N[C@@H](Cc1ccc(F)cc1)[C@H](O)CN[C@H]1CC2(CCC2)Oc2c1cc(CC(C)(C)C)nc2NC(C)C [compound 585] | 22.3
CC(=O)N[C@@H](Cc1ccc(F)cc1)[C@H](O)CN[C@H]1CC2(CCC2)Oc2c1cc(CC(C)(C)C)nc2NC1CC1 [compound 586] | 14
CC(=O)N[C@@H](Cc1ccc(F)cc1)[C@H](O)CN[C@H]1CC2(CCC2)Oc2c1cc(CC(C)(C)C)nc2NC1CCOCC1 [compound 587] | 8.48
CC(=O)N[C@@H](Cc1ccc(F)cc1)[C@H](O)CN[C@H]1CC2(CCC2)Oc2c1cc(CC(C)(C)C)nc2N(C)C [compound 588] | 52.3
CC(=O)N[C@@H](Cc1ccc(F)cc1)[C@H](O)CN[C@H]1CC2(CCC2)Oc2c1cc(CC(C)(C)C)nc2NC(C)(C)C [compound 589] | 615
CNc1nc(CC(C)(C)C)cc2c1OC1(CCC1)C[C@@H]2NC[C@@H](O)[C@H](Cc1cccc(F)c1)NC(C)=O [compound 590] | 1.41
CCNc1nc(CC(C)(C)C)cc2c1OC1(CCC1)C[C@@H]2NC[C@@H](O)[C@H](Cc1cccc(F)c1)NC(C)=O [compound 591] | 2.98

From patent publication US7973047B2, “Beta-Secretase modulators and methods of use” (Amgen Inc., priority 2010, dated 2011)
